The values that follow come from paper PMC8151655, “Some Dietary Phenolic Compounds Can Activate Thyroid Peroxidase and Inhibit Lipoxygenase-Preliminary Study in the Model Systems” (International Journal of Molecular Sciences, 2021).

In series [1] the target is T1, soybean lipoxygenase type 1-B (LOX) (Glycine max, UniProt P08170).
T1 construct: purchased Sigma-Aldrich Company (Poznan, Poland)
T1 sequence (P08170 1-839): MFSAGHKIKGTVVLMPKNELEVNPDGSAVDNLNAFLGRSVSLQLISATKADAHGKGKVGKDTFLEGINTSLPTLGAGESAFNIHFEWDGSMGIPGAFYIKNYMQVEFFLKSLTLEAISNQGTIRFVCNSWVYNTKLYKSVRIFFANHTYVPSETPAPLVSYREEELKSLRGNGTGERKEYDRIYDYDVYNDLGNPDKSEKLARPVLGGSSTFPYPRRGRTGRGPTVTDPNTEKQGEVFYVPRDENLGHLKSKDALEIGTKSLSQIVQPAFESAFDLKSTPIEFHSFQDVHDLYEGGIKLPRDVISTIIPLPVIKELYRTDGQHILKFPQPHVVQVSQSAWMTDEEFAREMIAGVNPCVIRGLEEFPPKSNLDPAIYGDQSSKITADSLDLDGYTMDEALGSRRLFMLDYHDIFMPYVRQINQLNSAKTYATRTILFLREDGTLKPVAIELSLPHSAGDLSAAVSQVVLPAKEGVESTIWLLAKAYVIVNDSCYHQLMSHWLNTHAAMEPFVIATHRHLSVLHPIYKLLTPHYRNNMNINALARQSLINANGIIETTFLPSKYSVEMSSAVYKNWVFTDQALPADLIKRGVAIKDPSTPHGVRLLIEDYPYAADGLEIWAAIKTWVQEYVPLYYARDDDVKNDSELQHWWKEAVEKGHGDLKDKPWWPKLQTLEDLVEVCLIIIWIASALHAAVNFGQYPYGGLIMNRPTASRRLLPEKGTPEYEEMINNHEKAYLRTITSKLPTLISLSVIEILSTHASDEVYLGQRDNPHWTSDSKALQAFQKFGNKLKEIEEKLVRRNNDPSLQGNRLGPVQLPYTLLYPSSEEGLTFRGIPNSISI
Nature of the series: Inhibition of lipoxygenase activity (LOXI) with linoleic acid as substrate. The settings on record: for Mode of Inhibition: Lineweaver-Burk, linoleic acid substrate. It counts as biochemical. The protocol:
Measurement was made at a wavelength of 234 nm. One unit of LOX activity was defined as an increase in absorbance of 0.001 per minute at 234 nm. All measurements were performed in four replicates.

The target of series [2] is T2, thyroid peroxidase (TPO) (Sus scrofa, UniProt P09933).
T2 construct: The frozen thyroid gland was minced with a fork; from tissue; host or cells: porcine thyroid gland (homogenate, centrifuged, salted out to 60%)
T2 sequence (P09933 15-926): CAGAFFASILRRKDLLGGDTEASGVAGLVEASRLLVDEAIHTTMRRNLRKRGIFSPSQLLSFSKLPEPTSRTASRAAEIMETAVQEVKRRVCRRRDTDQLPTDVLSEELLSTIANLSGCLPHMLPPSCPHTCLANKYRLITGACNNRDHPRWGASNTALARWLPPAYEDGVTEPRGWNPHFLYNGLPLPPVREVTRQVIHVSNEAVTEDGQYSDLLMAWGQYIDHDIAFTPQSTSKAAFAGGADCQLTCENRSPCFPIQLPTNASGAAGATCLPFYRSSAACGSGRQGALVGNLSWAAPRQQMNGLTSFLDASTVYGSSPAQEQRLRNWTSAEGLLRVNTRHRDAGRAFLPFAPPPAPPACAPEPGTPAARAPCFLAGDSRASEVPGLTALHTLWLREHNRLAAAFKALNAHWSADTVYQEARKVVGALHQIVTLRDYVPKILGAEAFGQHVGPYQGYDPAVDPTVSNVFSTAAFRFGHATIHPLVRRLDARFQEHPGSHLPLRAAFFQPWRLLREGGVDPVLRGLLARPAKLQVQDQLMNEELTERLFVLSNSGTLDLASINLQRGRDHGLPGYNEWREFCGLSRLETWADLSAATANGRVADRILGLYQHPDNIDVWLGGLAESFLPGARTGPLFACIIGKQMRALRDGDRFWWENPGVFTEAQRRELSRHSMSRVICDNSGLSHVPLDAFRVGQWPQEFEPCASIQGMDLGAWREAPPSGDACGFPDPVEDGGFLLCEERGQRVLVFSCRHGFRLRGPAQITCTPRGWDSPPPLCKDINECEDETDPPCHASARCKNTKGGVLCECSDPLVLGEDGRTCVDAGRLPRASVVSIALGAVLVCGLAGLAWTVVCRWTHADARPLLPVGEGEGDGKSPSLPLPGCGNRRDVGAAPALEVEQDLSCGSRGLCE
Kind of series: TPO assay (guaiacol oxidation, activation kinetics). It counts as biochemical, Porcine. The settings on record: n = 9, read-out: AC50 (concentration resulting in 50% activation). The protocol:
(§1) The assay was prepared according to Jomaa et al., with some modifications. Porcine thyroid glands were purchased at a slaughterhouse (Lublin, Poland) and stored at −20 °C until used. The frozen thyroid gland was minced with a fork. The mince was suspended in a buffer containing 0.25 M sucrose, 2 mM tris–HCl, 100 mM KCl, 40 mM NaCl and 10 mM MgCl2 (pH 7.4) and homogenized using Philips homogenizer. The thyroid gland was centrifuged two times at 4000 RPM per 15 min at a temperature + 4 °C. The enzyme protein was then salted out to 60%. The supernatant was stored at − 20 °C until used.
(§2) The assay was used according to Jomaa et al., with some modification. The measurement was made using a plate spectrophotometer (BioTek, Model Epoch2TC, Winooski, VT, USA) in 96–well plates at a wavelength of 470 nm. Absorbance readings were recorded every minute for a total of 3 min at 37 °C. TPO activity is expressed as a change of absorption per minute. All measurements were performed in three replicates. The AC50 (activator concentration) values were calculated at fitted models as the concentration of the tested compound providing 50% of the activation based on a dose-dependent mode of action.

The test system of series [3] is LOX. To be noted: different concentration than in the presented study; cited from earlier work.
The conditions of series [4]: FA perfused as a free pure compound in the rat intestine; cited from earlier work.
The test system of series [5] is LOX. Also noted: method as in doi:10.3390/app9030568. The settings on record: previous studies; cited from earlier work.
On the set-up of series [6]: method as in PMID 10730826. The settings on record: humans, FA in its free form, for example from beer; cited from earlier work.
A short description of series [7]: ABTS radical scavenging assay. To be noted: 15 min incubation at room temperature, n = 9; read-out: IC50 ABTS radical scavenging ability. The protocol:
ABTS radical scavenging activity was determined according to Re et al. with slight modifications using a microplate spectrophotometer (BioTek, Model Epoch2TC, Winooski, VT, USA) after 15 min of incubation at room temperature.

For series [8] the following is noted: blood samples of rabbits; cited from earlier work.
Details of series [9]: method as in earlier work. The settings on record: cited from earlier work.
Substrate in series [10]: COc1ccccc1O
Kind of series: TPO assay (guaiacol oxidation, activation kinetics). To be noted: other: TPO substrate guaiacol, n = 9; pH 7.4. It counts as biochemical, Porcine. On the procedure: as §1, §2

A word on the IC50: it is the concentration at which inhibition is half-maximal. Usually Ki stands for the equilibrium dissociation constant of an inhibitor or competing ligand from its target. Read a high Ki as a looser hold on the target. A word on the Km: it is the concentration of substrate that gives half-maximal velocity.

With `COc1cc(/C=C/C(=O)O)ccc1O` [Ferulic acid, ferulic acid], in series [1], the concentration for half-maximal inhibition (IC50) came to 27 ± 1.3 µM, affinity was put at a Ki of 8 ± 0.4 µM and the “Mode of Inhibition” value is on record as “uncompetitive”. The AC50 in series [2] was 390 ± 19 µM. Also, the LOX inhibition in series [3] is recorded as 74.4%. The Bioavailability result in series [4] is given as “about 50%”. Further, the “Mode of LOX inhibition” value in series [5] is “competitive”. Also, the Urinary excretion in series [6] was 19–98%. Further, the IC50 in series [7] amounted to 410 ± 20 µM.
Regarding `CCCCC/C=C\C/C=C\CCCCCCCC(=O)O` [Linoleic acid, reference compound], the Km in [1] (LOX substrate linoleic acid, read-out: Km without Inhibitor) amounted to 7 ± 0.3 µM.
For the molecule `COc1cc(C(=O)O)cc(OC)c1O` [Syringic acid, syringic acid], in [1], the half-inhibitory concentration (IC50) turned out to be 9 ± 0.4 µM, the inhibition constant (Ki) came out at 5 ± 0.3 µM and the “Mode of Inhibition” value is “uncompetitive”. Also, the AC50 in series [2] worked out at 690 ± 34 µM. In addition, the Absolute bioavailability in series [8] is recorded as 86.27%. In addition, in series [7], the IC50 amounted to 220 ± 11 µM.
In the case of `O=C(O)/C=C/c1ccccc1` [trans–cinnamic acid, trans-cinnamic acid], in series [1], the half-inhibitory concentration (IC50) is 9 ± 0.4 µM, the inhibition constant (Ki) came to 9 ± 0.4 µM and the “Mode of Inhibition” value is on record as “uncompetitive”. In addition, the AC50 in [2] stood at 100 ± 5 µM. Moreover, the LOX inhibition in series [3] was 66.6%. Further, the Oral bioavailability entry in series [9] is given as “low”. Further, the IC50 in [7] was 2120 ± 106 µM.

B1: thyroid peroxidase (TPO) (Sus scrofa) (protein)
chain: CAGAFFASILRRKDLLGGDTEASGVAGLVEASRLLVDEAIHTTMRRNLRKRGIFSPSQLLSFSKLPEPTSRTASRAAEIMETAVQEVKRRVCRRRDTDQLPTDVLSEELLSTIANLSGCLPHMLPPSCPHTCLANKYRLITGACNNRDHPRWGASNTALARWLPPAYEDGVTEPRGWNPHFLYNGLPLPPVREVTRQVIHVSNEAVTEDGQYSDLLMAWGQYIDHDIAFTPQSTSKAAFAGGADCQLTCENRSPCFPIQLPTNASGAAGATCLPFYRSSAACGSGRQGALVGNLSWAAPRQQMNGLTSFLDASTVYGSSPAQEQRLRNWTSAEGLLRVNTRHRDAGRAFLPFAPPPAPPACAPEPGTPAARAPCFLAGDSRASEVPGLTALHTLWLREHNRLAAAFKALNAHWSADTVYQEARKVVGALHQIVTLRDYVPKILGAEAFGQHVGPYQGYDPAVDPTVSNVFSTAAFRFGHATIHPLVRRLDARFQEHPGSHLPLRAAFFQPWRLLREGGVDPVLRGLLARPAKLQVQDQLMNEELTERLFVLSNSGTLDLASINLQRGRDHGLPGYNEWREFCGLSRLETWADLSAATANGRVADRILGLYQHPDNIDVWLGGLAESFLPGARTGPLFACIIGKQMRALRDGDRFWWENPGVFTEAQRRELSRHSMSRVICDNSGLSHVPLDAFRVGQWPQEFEPCASIQGMDLGAWREAPPSGDACGFPDPVEDGGFLLCEERGQRVLVFSCRHGFRLRGPAQITCTPRGWDSPPPLCKDINECEDETDPPCHASARCKNTKGGVLCECSDPLVLGEDGRTCVDAGRLPRASVVSIALGAVLVCGLAGLAWTVVCRWTHADARPLLPVGEGEGDGKSPSLPLPGCGNRRDVGAAPALEVEQDLSCGSRGLCE
notes: The frozen thyroid gland was minced with a fork; from tissue; host or cells: porcine thyroid gland (homogenate, centrifuged, salted out to 60%)
For B1, the Michaelis-Menten constant (Km) in [10] amounted to 60 ± 3 µM.
